Activity calls are given as the source filed them. The rule behind the calls is not given here.
Tests used:
[1] = Drug uptake in mouse NIH/3T3 cells at 5 uM and 4 degree C after 16 hrs by FACS analysis relative to 37 degree C; format: ADME, cell-based; settings: nih3t3, 16 h
[2] = molecular target: GTPase NRas (Homo sapiens) (UniProt P01111); assay: Inhibition of NRAS in human PANC1 cells assessed as downregulation of NRAS expression at 15 nM followed by 7.2 J/cm2 irradiation after 4 hrs by Western blot analysis (reference value: 25 %); format: cell-based
PANC-1 [3] = assay: Induction of apoptosis in human PANC1 cells assessed as necrotic cells at 5 nM and photoirradiated at 7.2 J/cm2 measured after 6 to 24 hrs by annexin-V-propidium iodide staining based FACScalibur flow cytometry analysis (reference value: 3.2 %); format: functional
MIA PaCa-2 = assay: Cytotoxicity against human MIAPaCa2 cells harboring G12C point mutation assessed as reduction in metabolic activity after 48 hrs in dark followed by photoirradiation in presence of NADH by resazurin assay; format: functional, cell-based
PANC-1 [4] = assay: Induction of apoptosis in human PANC1 cells assessed as viable cells at 15 nM and photoirradiated at 7.2 J/cm2 measured after 6 to 24 hrs by annexin-V-propidium iodide staining based FACScalibur flow cytometry analysis (reference value: 85.5 %); format: functional; settings: PANC-1, light or radiation study, read-out: Activity
PANC-1 [5] = assay: Induction of apoptosis in human PANC1 cells assessed as viable cells at 5 nM and photoirradiated at 7.2 J/cm2 measured after 6 to 24 hrs by annexin-V-propidium iodide staining based FACScalibur flow cytometry analysis (reference value: 85.5 %); format: functional; settings: PANC-1, light or radiation study, read-out: Activity
[6] = Drug uptake in human PANC1 cells at 5 uM and 4 degree C after 16 hrs by FACS analysis relative to 37 degree C; format: ADME, cell-based; settings: panc-1, 16 h
PANC-1 [7] = assay: Induction of apoptosis in human PANC1 cells assessed as early apoptotic cells at 10 nM and photoirradiated at 7.2 J/cm2 measured after 6 to 24 hrs by annexin-V-propidium iodide staining based FACScalibur flow cytometry analysis (reference value: 7.8 %); format: functional
[8] = molecular target: GTPase NRas (Homo sapiens) (UniProt P01111); assay: Inhibition of NRAS in human PANC1 cells assessed as downregulation of NRAS expression at 15 nM after 4 hrs by Western blot analysis; format: cell-based
PANC-1 [9] = assay: Induction of apoptosis in human PANC1 cells assessed as necrotic cells at 15 nM and photoirradiated at 7.2 J/cm2 measured after 6 to 24 hrs by annexin-V-propidium iodide staining based FACScalibur flow cytometry analysis (reference value: 3.2 %); format: functional
[10] = molecular target: GTPase KRas (Homo sapiens) (UniProt P01116); assay: Inhibition of KRAS in human PANC1 cells assessed as downregulation of KRAS expression at 15 nM followed by 7.2 J/cm2 irradiation after 4 hrs by Western blot analysis (reference value: 5 %); format: cell-based
[11] = Drug uptake in human PANC1 cells at 5 uM after 16 hrs by FACS analysis; format: ADME, cell-based; settings: panc-1, 16 h
PANC-1 [12] = assay: Cytotoxicity against human PANC1 cells assessed as reduction in metabolic activity after 48 hrs in dark followed by photoirradiation in presence of NADH by resazurin assay; format: functional, cell-based; settings: PANC-1, light or radiation study
[13] = molecular target: GTPase NRas (Homo sapiens) (UniProt P01111); assay: Inhibition of NRAS in human PANC1 cells assessed as decrease in NRAS mRNA level at 15 nM followed by 7.2 J/cm2 irradiation after 4 hrs by qRT-PCR analysis; format: cell-based
[14] = Drug localization in cytoplasm of human PANC1 cells at 5 uM after 6 hrs by Hoechst staining based confocal microscopy; format: ADME, subcellular; settings: panc-1, 6 h
Quadruplex DNA [15] = assay: Binding affinity to human KRAS utr-z RNA g-quadruplex by fluorescence spectroscopy; format: nucleic-acid assay
[16] = Drug uptake in human PANC1 cells in presence of dynamin-inhibitor dynasore; format: ADME, cell-based; settings: panc-1
PANC-1 [17] = assay: Induction of apoptosis in human PANC1 cells assessed as late apoptotic cells at 15 nM and photoirradiated at 7.2 J/cm2 measured after 6 to 24 hrs by annexin-V-propidium iodide staining based FACScalibur flow cytometry analysis (reference value: 3.6 %); format: functional
PANC-1 [18] = assay: Cytotoxicity against human PANC1 cells assessed as reduction in metabolic activity at 20 nM after 24 to 72 hrs in dark followed by photoirradiation in presence of NADH and NAC by resazurin assay; format: functional, cell-based
Quadruplex DNA [19] = assay: Binding affinity to human KRAS utr-c RNA g-quadruplex by fluorescence spectroscopy; format: nucleic-acid assay
[20] = Drug uptake in human PANC1 cells at 5 uM after 2 hrs by FACS analysis; format: ADME, cell-based; settings: panc-1, 2 h
PANC-1 [21] = assay: Cytotoxicity against human PANC1 cells assessed as reduction in metabolic activity at 20 nM after 24 to 72 hrs in dark followed by photoirradiation in presence of NADH by resazurin assay; format: functional, cell-based
Quadruplex DNA [22] = assay: Binding affinity to human KRAS utr-1 RNA g-quadruplex by fluorescence spectroscopy; format: nucleic-acid assay
PANC-1 [23] = assay: Induction of apoptosis in human PANC1 cells assessed as early apoptotic cells at 15 nM and photoirradiated at 7.2 J/cm2 measured after 6 to 24 hrs by annexin-V-propidium iodide staining based FACScalibur flow cytometry analysis (reference value: 7.8 %); format: functional
PANC-1 [24] = assay: Induction of apoptosis in human PANC1 cells assessed as cleavage of caspase 7 when photoirradiated at 7.2 J/cm2 by Western blot analysis; format: functional, cell-based
PANC-1 [25] = assay: Induction of apoptosis in human PANC1 cells assessed as late apoptotic cells at 5 nM and photoirradiated at 7.2 J/cm2 measured after 6 to 24 hrs by annexin-V-propidium iodide staining based FACScalibur flow cytometry analysis (reference value: 3.6 %); format: functional
PANC-1 [26] = assay: Induction of apoptosis in human PANC1 cells assessed as cleavage of caspase 3 when photoirradiated at 7.2 J/cm2 by Western blot analysis; format: functional, cell-based
[27] = Drug uptake in human HEK293 cells at 5 uM and 4 degree C after 16 hrs by FACS analysis relative to 37 degree C; format: ADME, cell-based; settings: hek293, 16 h
PANC-1 [28] = assay: Induction of apoptosis in human PANC1 cells assessed as viable cells at 10 nM and photoirradiated at 7.2 J/cm2 measured after 6 to 24 hrs by annexin-V-propidium iodide staining based FACScalibur flow cytometry analysis (reference value: 85.5 %); format: functional; settings: PANC-1, light or radiation study, read-out: Activity
Quadruplex DNA [29] = assay: Binding affinity to human KRAS utr-z RNA g-quadruplex assessed as compound-RNA complex stoichiometry ratio of 9:1 by Job's plot analysis; format: nucleic-acid assay
[30] = molecular target: GTPase KRas (Homo sapiens) (UniProt P01116); assay: Inhibition of KRAS in human PANC1 cells assessed as decrease in KRAS mRNA level at 15 nM followed by 7.2 J/cm2 irradiation after 4 hrs by qRT-PCR analysis; format: cell-based
PANC-1 [31] = assay: Induction of apoptosis in human PANC1 cells assessed as early apoptotic cells at 5 nM and photoirradiated at 7.2 J/cm2 measured after 6 to 24 hrs by annexin-V-propidium iodide staining based FACScalibur flow cytometry analysis (reference value: 7.8 %); format: functional
[32] = molecular target: GTPase KRas (Homo sapiens) (UniProt P01116); assay: Inhibition of KRAS in human PANC1 cells assessed as downregulation of KRAS expression at 15 nM after 4 hrs by Western blot analysis; format: cell-based
PANC-1 [33] = assay: Induction of apoptosis in human PANC1 cells assessed as necrotic cells at 10 nM and photoirradiated at 7.2 J/cm2 measured after 6 to 24 hrs by annexin-V-propidium iodide staining based FACScalibur flow cytometry analysis (reference value: 3.2 %); format: functional
[34] = Aggregation property of compound at > 40 degree C; format: physicochemical
HEK293 = assay: Cytotoxicity against human HEK293 cells assessed as reduction in metabolic activity after 24 to 72 hrs in dark followed by photoirradiation in presence of NADH by resazurin assay; format: ADME, cell-based
Quadruplex DNA [35] = assay: Binding affinity to human KRAS utr-z RNA g-quadruplex at 40 degree C by SPR analysis; format: nucleic-acid assay
Quadruplex DNA [36] = assay: Binding affinity to NRAS RNA g-quadruplex (unknown origin) by fluorescence spectroscopy; format: nucleic-acid assay
[37] = Binding affinity to NRAS RNA g-quadruplex (unknown origin) at 40 degree C by SPR analysis; format: nucleic-acid assay
PANC-1 [38] = assay: Induction of apoptosis in human PANC1 cells assessed as late apoptotic cells at 10 nM and photoirradiated at 7.2 J/cm2 measured after 6 to 24 hrs by annexin-V-propidium iodide staining based FACScalibur flow cytometry analysis (reference value: 3.6 %); format: functional
PANC-1 [39] = assay: Induction of apoptosis in human PANC1 cells assessed as cleavage of PARP1 when photoirradiated at 7.2 J/cm2 by Western blot analysis; format: functional, cell-based

GTPase KRas (Homo sapiens), sequence (P01116 whole entry, looked up): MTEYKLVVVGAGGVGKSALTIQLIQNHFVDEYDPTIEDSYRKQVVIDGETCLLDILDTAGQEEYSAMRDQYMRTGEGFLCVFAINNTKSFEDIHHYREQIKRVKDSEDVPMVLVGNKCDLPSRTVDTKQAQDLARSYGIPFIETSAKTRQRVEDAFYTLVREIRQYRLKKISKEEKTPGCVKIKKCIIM
GTPase NRas (Homo sapiens), sequence (P01111 whole entry): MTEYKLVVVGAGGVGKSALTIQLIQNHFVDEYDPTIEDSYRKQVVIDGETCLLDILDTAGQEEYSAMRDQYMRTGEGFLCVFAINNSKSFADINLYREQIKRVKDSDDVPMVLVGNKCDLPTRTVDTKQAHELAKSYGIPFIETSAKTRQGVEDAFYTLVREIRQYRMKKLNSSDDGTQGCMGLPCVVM

CCCCCCCCCCCCCCCCCC[n+]1ccc(-c2c3nc(c(-c4cc[n+](C)cc4)c4ccc([nH]4)c(-c4cc[n+](C)cc4)c4nc(c(-c5cc[n+](C)cc5)c5ccc2[nH]5)C=C4)C=C3)cc1.[I-].[I-].[I-].[I-]
Drug uptake [1]: Active
inhibition [2]: 50%
Activity (PANC-1 [3]): 2.1%
Activity (MIA PaCa-2): Active
viability at 0.015 µM (PANC-1 [4]): 75.1%
viability at 0.005 µM (PANC-1 [5]): 78.2%
Drug uptake [6]: 47%
Activity (PANC-1 [7]): 3.03%
inhibition [8]: inactive
Activity (PANC-1 [9]): 5.77%
inhibition [10]: 20%
Drug uptake [11]: Active
EC50 (PANC-1 [12]): 16.4 nM
inhibition [13]: Active
Drug uptake [14]: Active
Kd (Quadruplex DNA [15]): 99 nM
Drug uptake [16]: Not Active
Activity (PANC-1 [17]): 15.63%
Activity (PANC-1 [18]): inactive
Kd (Quadruplex DNA [19]): 188 nM
Drug uptake [20]: Active
Activity (PANC-1 [21]): Active
Kd (Quadruplex DNA [22]): 150 nM
Activity (PANC-1 [23]): 3.53%
Activity (PANC-1 [24]): Active
Activity (PANC-1 [25]): 12.4%
Activity (PANC-1 [26]): Active
Drug uptake [27]: Active
viability at 0.01 µM (PANC-1 [28]): 81.5%
Activity (Quadruplex DNA [29]): Active
inhibition [30]: Active
Activity (PANC-1 [31]): 7.35%
inhibition [32]: inactive
Activity (PANC-1 [33]): 4.03%
Activity [34]: Active
Activity (HEK293): Non-Toxic
Kd (Quadruplex DNA [35]): 82 to 202 nM
Kd (Quadruplex DNA [36]): 32 nM
Kd [37]: 56 to 98 nM
Activity (PANC-1 [38]): 11.43%
Activity (PANC-1 [39]): Active

— ChEMBL document CHEMBL4376882, “Photodynamic Therapy for ras-Driven Cancers: Targeting G-Quadruplex RNA Structures with Bifunctional Alkyl-Modified Porphyrins” (J Med Chem, 2020)
